In patent US5601806A, “Methods for scavenging active oxygen compounds and preventing damage from ultra violet B rays using taurine analogues” (Sogo Pharmaceutical Company Limited, priority 1991, dated 1997):

Columns and labels:
tyrosinase [1] = experiment: Tyrosine oxidation preventing effect (tyrosine oxide polymer production); type: biochemical; settings: Indoors
tyrosinase [2] = experiment: as above; type: biochemical; settings: Ultraviolet rays
Protocol: In a quartz cell was put 1 ml of L-tyrosine (30 mg/100 ml), 1 ml of a tris buffer solution and 0.9 ml of a test solution (6.25×1/10^2 mol/l-1 mol/l), and the mixture was allowed to stand under radiation from an ultraviolet lamp at 37° C. for 10 minutes. Following this, 0.1 ml of tyrosinase (2000 units/ml) were added thereto, and further irradiated under an ultraviolet lamp at 37° C. for 30 minutes, after which the production of tyrosine oxide polymers was measured at 475 nm.

[3] = alloxan; cited from earlier work
[4] = applied externally to the skin; cited from earlier work
XOD = experiment: Inhibition of XOD reaction by SOD (system (3) of SOD activating method); type: biochemical; settings: SOD 0.1 ml
Source text: (§1) Next, a measurement was made of the SOD activating function.
(§2) (3) System for inhibiting XOD reaction with SOD. XOD reaction was 20%

[5] = Reactivity with singlet oxygen, riboflavin (Rf)/h.nu.-system; type: biochemical; settings: for thiotaurine reacted with ^1 O2 (decomposition): absence of NaN3, pH 7.8
Protocol: Fourteen milligrams of thiotaurine and 1.5 mg of riboflavin (Rf) were dissolved in 50 ml of a wing buffer solution (pH 7.8), after which light irradiation (FL20SBRF Toshiba, UVA 0.1 mW/cm^2, UVB 0.1 mW/cm^2, visible light 0.4 mW/cm^2) was initiated in the presence and in the absence of 34 mg of sodium azide (NaN3). After continuously reacting the product from the reactant solution with dansyl chloride, a fluorescent reagent, high-performance liquid chromatography was used for separation and analysis.
The conditions for the high-performance liquid chromatography were as listed below.
Mobile phase: 0.1M phosphate buffer solution: THF ([…]): acetonitrile=670:40:350
The results obtained are shown in FIG. 1 as percentages (%) for the proportions of thiotaurine, hypotaurine and taurine at each hour shown.
It is assumed that in the Rf/h.nu.-system ^1 O2 is produced according to the formula listed below as Chemical formula 7.

[6] = Long-term administration to rats, 180 days; type: in vivo; settings: 200 mg/kg every day
Source text: The active ingredient compound according to the present invention, an aminothiosulfonic acid, not only functions as a light shield and as a production inhibitor or scavenger of lipid peroxides and active oxygen, but since it and its decomposition products are structurally similar to compounds which are naturally present in the body including taurine, etc. (C.R. Acad. Sci., Ser. 3, 302 (13) 503-8: Presence of Large Quantities of Thiotaurine and Hypotaurine in the Tissues of Riftia pachyptila), its toxicity is extremely low making it a safe substance.

[7] = Reactivity with ^1 O2 in riboflavin, rose bengal and methylene blue/h.nu.-systems with DABCO; type: biochemical; settings: DABCO as quencher
Source text: Therefore, the 3 systems listed below were used in identical experiments.
1. Riboflavin/h.nu.-system, 1,4-diazabicyclooctane (DABCO) as ^1 O2 quencher
2. Rose bengal/h.nu.-system DABCO as ^1 O2 quencher
3. Methylene blue/h.nu.-system DABCO as ^1 O2 eliminator

bacteria = type: cell-based; settings: coexistence or non-coexistence with S9Mix
[8] = Effect on alloxan diabetes; type: in vivo, Wistar Imamichi rats; settings: 500 mg/kg oral once a day, 2 weeks
Protocol: Thiotaurine was orally administered in an amount of 500 mg/kg once a day to Wistar Imamichi rats, for a period of 2 weeks. Three days prior to the last administration of the medicine feeding of the rats was stopped for 16 hours, and alloxan dissolved in chilled physiological saline was intravenously injected at an amount of 75 mg/kg. One hour after the last administration of the medicine, the rats were killed, their blood was obtained, and a measurement was made of the triglycerides and blood sugar in the blood, using the enzyme method.

[9] = Effect on hydrocortisone induced chick embryo cataract; type: in vivo, White leghorn chick embryos; settings: HC 0.12 mg/egg
Protocol: White leghorn chick embryos were incubated in an incubator at a temperature of 37° C. and a humidity of approximately 70%. Then a solution of 0.12 mg of hydrocortisone succinate (HC) in 0.2 ml of purified water was administered through the air chambers of the eggs of the control group and the test group on the 15th day of incubation. Thiotaurine was then given to the test group 2 hours, or 2 and 5 hours, after HC administration.
The lenses were removed 8 hours after HC administration, and the presence of cataracts was judged according to the criteria listed in Table 8, using the method of Nishikuni, et. al. (Investigative Opthamology and Visual Science, 25, p. 1051, 1984).
I. Lens was clear and indistinguishable from control.
IV: Pinhole-sized clear area in an opaque nucleus.

[10] = H2 O2 scavenging function; type: biochemical
Protocol: In a quartz cell were placed 1 mM of thiotaurine and […] of H2 O2, and the change in thiotaurine was measured by HPLC while irradiating with light.

[11] = Influence of externally applied thiotaurine on UVB rays (erythema, SPF); type: in vivo, male Hartley guinea pigs
Protocol: Thiotaurine was added to a base cream of the composition indicated in Table 5, at concentrations of 5.0% (w/w) and 7.5% (w/w), respectively.
Experimental method: In this experiment, male Hartley guinea pigs of body weight 230-250 g were used. The back, abdomen and side hair of the guinea pigs was first roughly removed with hair clippers, after which the hair was completely removed with care using a Brown electric shaver. On the morning of the next day, the hair was again removed, the body weights measured, and the groups divided. The UVB radiation was applied in 10 stages of 0.075, 0.1, 0.15, 0.2, 0.3, 0.4, 0.5, 0.6, 0.7, and 0.8. Five minutes prior to irradiation, the base cream was applied to the control area, and the thiotaurine-containing cream preparations were applied to the test area. Then observations were made 2, 4, 6, 8, and 24 hours later to determine the presence of erythema, visually.
1; Difficult to determine presence or absence of erythema
2; Erythema clearly present but edges unclear
3; Erythema clearly present and edges clear

[12] = Primary skin irritation test; type: in vivo; settings: rabbits
Protocol: (§3) In addition, the result was determined to be negative in both a primary skin irritation test and an eye irritation test using rabbits.

[13] = Preventing effect on photo-oxidation of methionine by hydroxyl radical; type: biochemical; settings: 1 mM thiotaurine, 1 mM methionine, riboflavin, NADH, Fe (II) EDTA, UVA 370 nm
Protocol: In a quartz cell was placed 1 mM of methionine, riboflavin, NADH and Fe (II) EDTA, and super high pressure mercury lamp rays (UVA 370 nm) were irradiated thereto, thus presenting a control. Next, 1 mM of thiotaurine was added to the same system mentioned above and the reaction was initiated by light irradiation as before, while the two reactions were sequentially followed by HPLC and finally compared.
These systems, to which the Fe (II) chelate compound and electron donor, NADH, were added in the presence of riboflavin, produced the HO.

[14] = SOD-mimic functions of thiotaurine (xanthine-xanthine oxidase-NBT method); type: biochemical
Source text: Experimental method: Measurement of the SOD-mimic functions was done, with slight modifications, according to the Xanthine-xanthine oxidase-nitrobluetetrazolium (NBT) method described in Lipid Peroxide Experiments (edited by N. Kaneda, N. Ueda, Ishiyaku Press, p. 144). The measurement is based on measuring at 560 nm the amount of formazan produced by the reduction of NBT with a superoxide which results from the oxidation of xanthine with xanthine oxidase, and calculating the activation thereof. The modification involved irradiation with UVB ([…], 1.8 J/cm^2, 313 nm) for 5 minutes while simultaneously adding the xanthine oxidase, in order to interrupt the reaction.

[15] = parameters: species or system rabbits; settings: rabbit, in vivo
Protocol: as §3

in vivo = settings: rat, SD male and female rats, oral
SOD = SOD (Bos taurus, UniProt P00442); experiment: SOD activating function; type: biochemical; settings: read-out: SOD activating function (SOD activation rate)
Sequence of SOD (P00442 whole entry): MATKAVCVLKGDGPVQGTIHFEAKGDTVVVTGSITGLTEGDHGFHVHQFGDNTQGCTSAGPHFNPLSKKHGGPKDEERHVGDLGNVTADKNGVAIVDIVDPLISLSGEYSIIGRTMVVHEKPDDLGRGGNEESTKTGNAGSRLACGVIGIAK
Protocol: as §1
Method of measurement of SOD activating function
Test Comp. 0.1 0.1 -- --
Preincubate 25° C., 10 min.
UVB radiation, 6.0 mw/cm^2, 5 min. (1.8 J/cm^2)
(1) System for observing whether the consumption of superoxides by SOD is
further increased with the test composition.
as §2
(4) System for a complete, uninhibited XOD reaction.
The SOD activation rates of the test compositions were calculated using the equation listed as Equation 1 below, and the results shown in Table 3 were obtained. [formula]

[16] = Lipid peroxide production inhibitory effect; type: biochemical
Protocol: Fifty ml of a solution prepared by combining a solution of 12.5 mg of methyl linoleate, 2.5 mg of Rf and 2-70 mg of thiotaurine in ethanol with a wing buffer solution, and the resulting solution was subjected to light irradiation as in Experiment 2. After a determined period of time a sample was recovered, and the lipid peroxides were measured using the Yagi method.

[17] = alloxan 75 mg/kg i.v., P < 0.05 vs control group

## N=C(N)NCCS(=O)(O)=S [thiotaurocyamine]
Tyrosinase [1]; 1 mol/l
  Inhibition rate (tyrosine oxidation): 91.5%
Tyrosinase [1]; 1.25 × 10^-1 mol/l
  Inhibition rate (tyrosine oxidation): 36.8%
Tyrosinase [1]; 2.5 × 10^-1 mol/l
  Inhibition rate (tyrosine oxidation): 61.7%
Tyrosinase [1]; 5 × 10^-1 mol/l
  Inhibition rate (tyrosine oxidation): 87.7%
Tyrosinase [1]; 6.25 × 10^-2 mol/l
  Inhibition rate (tyrosine oxidation): 12.8%
Tyrosinase [2]; 1 mol/l
  Inhibition rate (tyrosine oxidation): 96.6%
Tyrosinase [2]; 1.25 × 10^-1 mol/l
  Inhibition rate (tyrosine oxidation): 88.2%
Tyrosinase [2]; 2.5 × 10^-1 mol/l
  Inhibition rate (tyrosine oxidation): 92.8%
Tyrosinase [2]; 5 × 10^-1 mol/l
  Inhibition rate (tyrosine oxidation): 92.4%
Tyrosinase [2]; 6.25 × 10^-2 mol/l
  Inhibition rate (tyrosine oxidation): 78.0%

## superoxide dismutase [SOD]
[3]
  symptoms of diabetes: suppressed
[4]
  amount of lipid peroxides in the epidermis due to UV rays: lowering the amount of lipid peroxides (LPO) in the epidermis due to UV rays
XOD
  XOD reaction inhibited by SOD: 20%

## catalase
[3]
  symptoms of diabetes: suppressed

## NCCS(=O)(O)=S [thiotaurine, Aminoethyl thiosulfonate]
[5]; 2 hours
  thiotaurine reacted with ^1 O2 (decomposition): 40%
[5]; 6 hours
  thiotaurine reacted with ^1 O2 (decomposition): 90%
[5]; 6 hours, presence of NaN3 (^1 O2 quencher), pH 7.8
  thiotaurine remaining: approximately 85%
[6]
  change in the body weight curve: no change in the body weight curve
  deaths: no deaths at all
[7]
  reaction with ^1 O2: reacts with ^1 O2 in all three systems
bacteria
  mutagenicity (Ames Test): no mutagenecity was observed
[8]
  increase of glucose suppressed to, compared with control: 65%
  increase of triglycerides suppressed to, compared with control: 70%
[8]; [17]
  Blood sugar: 769.1 ± 120.3 mg/dL
  Triglyceride: 363.8 ± 38.2 mg/dL
[8]; control = 100
  Blood sugar relative to control group (100): 65
  Triglyceride relative to control group (100): 70
[9]; 0.5 mg × 1 time/egg
  Determination: lenses of grade II (faint opaque ring): 6/8
  Determination: lenses of grade III (distinct opaque ring): 2/8
[9]; 1.0 mg × 1 time/egg
  Determination: lenses of grade I (clear): 2/8
  Determination: lenses of grade II (faint opaque ring): 2/8
  Determination: lenses of grade III (distinct opaque ring): 4/8
[9]; 1.0 mg × 2 times/egg
  Determination: lenses of grade I (clear): 4/8
  Determination: lenses of grade II (faint opaque ring): 4/8
[9]; 2.0 mg × 2 times/egg
  Determination: lenses of grade I (clear): 4/8
  Determination: lenses of grade II (faint opaque ring): 4/8
[10]; light irradiation, 1 mM thiotaurine
  oxidation of thiotaurine to taurine and hypotaurine with H2 O2, time: about 3 hours
[10]; no light irradiation
  reaction with H2 O2: did not react at all
[11]; 5% (w/w) cream, 2 hr post-irradiation
  SPF value: 3.6
[11]; 5% (w/w) cream, 4 hr post-irradiation
  SPF value: 3.6
[11]; 5% (w/w) cream, 6 hr post-irradiation
  SPF value: 3.8
[11]; 5% (w/w) cream, 8 hr post-irradiation
  SPF value: 4.1
[11]; 5% (w/w) cream, 24 hr post-irradiation
  SPF value: 5.0
[11]; 7.5% (w/w) cream, 2 hr post-irradiation
  SPF value: 4.4
[11]; 7.5% (w/w) cream, 4 hr post-irradiation
  SPF value: 4.3
[11]; 7.5% (w/w) cream, 6 hr post-irradiation
  SPF value: 4.3
[11]; 7.5% (w/w) cream, 8 hr post-irradiation
  SPF value: 4.3
[11]; 7.5% (w/w) cream, 24 hr post-irradiation
  SPF value: 5.7
[12]
  primary skin irritation: negative
[13]
  inhibition of methionine oxidation with HO.: inhibits the methionine oxidation with HO., and has a scavenging effect against hydroxy radicals
[14]; 10^-2 M/reaction solution
  Superoxide production inhibition rate: 34.4%
[14]; 10^-3 M/reaction solution
  Superoxide production inhibition rate: 34.7%
[14]; 10^-4 M/reaction solution
  Superoxide production inhibition rate: 43.2%
[14]; 10^-5 M/reaction solution
  Superoxide production inhibition rate: 35.7%
[14]; 10^-6 M/reaction solution
  Superoxide production inhibition rate: 47.0%
[14]; 10^-7 M/reaction solution
  Superoxide production inhibition rate: 34.7%
[15]
  eye irritation: negative
In vivo
  LD50: > 2000 mg/kg
SOD; 10^-2 M/reaction solution
  activation at 10000 µM: 65.8%
SOD; 10^-3 M/reaction solution
  activation at 1000 µM: 32.1%
SOD; 10^-4 M/reaction solution
  activation at 100 µM: 29.6%
SOD; 10^-5 M/reaction solution
  activation at 10 µM: 14.3%
SOD; 10^-6 M/reaction solution
  activation at 1 µM: 1.6%
[16]; 2.8×1/10^4 M, after 7.5 hours, 280 µM
  prevention of production of lipid peroxides: approximately 50%
[16]; 4×1/10^3 M, 4000 µM
  prevention of production of lipid peroxides: ~100%
